Experimental data from PMC5522181 (ACS chemical neuroscience, 2017).
Read-outs that look alike come from different tables or passages of the source.

Tests used:
[1] = Plasma protein binding by equilibrium dialysis
BCRP (MDCK-BCRP) = target: T1, BCRP (MDCK-BCRP) (Homo sapiens, UniProt Q9UNQ0); assay: Bidirectional transport across BCRP-MDCK cell monolayers; type: in vitro ADME; settings: MDCK-BCRP monolayer; CNO 5 μM; 120 min; no inhibitor
T1 sequence (Q9UNQ0 1-655): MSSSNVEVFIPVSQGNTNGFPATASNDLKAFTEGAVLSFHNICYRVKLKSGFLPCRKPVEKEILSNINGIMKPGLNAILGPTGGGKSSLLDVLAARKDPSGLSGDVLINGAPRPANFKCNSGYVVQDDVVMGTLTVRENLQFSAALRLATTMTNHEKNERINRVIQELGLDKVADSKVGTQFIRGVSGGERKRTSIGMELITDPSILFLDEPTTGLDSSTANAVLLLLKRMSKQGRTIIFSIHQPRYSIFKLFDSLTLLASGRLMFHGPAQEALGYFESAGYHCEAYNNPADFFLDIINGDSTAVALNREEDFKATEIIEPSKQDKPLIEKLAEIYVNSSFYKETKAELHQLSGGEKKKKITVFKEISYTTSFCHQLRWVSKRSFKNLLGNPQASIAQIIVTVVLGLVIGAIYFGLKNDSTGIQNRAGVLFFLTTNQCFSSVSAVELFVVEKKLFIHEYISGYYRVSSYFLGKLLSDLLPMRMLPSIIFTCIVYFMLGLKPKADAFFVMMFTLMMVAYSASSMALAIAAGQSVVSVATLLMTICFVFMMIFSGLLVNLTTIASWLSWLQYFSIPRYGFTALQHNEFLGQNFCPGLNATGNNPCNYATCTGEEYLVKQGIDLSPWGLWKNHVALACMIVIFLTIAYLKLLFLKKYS

[2] = rhesus monkey, in vivo, sc
human Pgp (MDCK-MDR1) = human Pgp (MDCK-MDR1) (Homo sapiens, UniProt P08183); assay: Bidirectional transport across MDR1-MDCK cell monolayers; type: in vitro ADME; settings: CNO 5 μM
[3] = CNO 10 mg/kg IM, monkeys; cited from earlier work
in vitro = settings: plasma, pH 7.4
Pharmacokinetics = settings: both, rhesus monkey, sc
[4] = MDCK-Pgp monolayer, 120 min, no inhibitor

Sequence of human Pgp (MDCK-MDR1) (P08183 whole entry): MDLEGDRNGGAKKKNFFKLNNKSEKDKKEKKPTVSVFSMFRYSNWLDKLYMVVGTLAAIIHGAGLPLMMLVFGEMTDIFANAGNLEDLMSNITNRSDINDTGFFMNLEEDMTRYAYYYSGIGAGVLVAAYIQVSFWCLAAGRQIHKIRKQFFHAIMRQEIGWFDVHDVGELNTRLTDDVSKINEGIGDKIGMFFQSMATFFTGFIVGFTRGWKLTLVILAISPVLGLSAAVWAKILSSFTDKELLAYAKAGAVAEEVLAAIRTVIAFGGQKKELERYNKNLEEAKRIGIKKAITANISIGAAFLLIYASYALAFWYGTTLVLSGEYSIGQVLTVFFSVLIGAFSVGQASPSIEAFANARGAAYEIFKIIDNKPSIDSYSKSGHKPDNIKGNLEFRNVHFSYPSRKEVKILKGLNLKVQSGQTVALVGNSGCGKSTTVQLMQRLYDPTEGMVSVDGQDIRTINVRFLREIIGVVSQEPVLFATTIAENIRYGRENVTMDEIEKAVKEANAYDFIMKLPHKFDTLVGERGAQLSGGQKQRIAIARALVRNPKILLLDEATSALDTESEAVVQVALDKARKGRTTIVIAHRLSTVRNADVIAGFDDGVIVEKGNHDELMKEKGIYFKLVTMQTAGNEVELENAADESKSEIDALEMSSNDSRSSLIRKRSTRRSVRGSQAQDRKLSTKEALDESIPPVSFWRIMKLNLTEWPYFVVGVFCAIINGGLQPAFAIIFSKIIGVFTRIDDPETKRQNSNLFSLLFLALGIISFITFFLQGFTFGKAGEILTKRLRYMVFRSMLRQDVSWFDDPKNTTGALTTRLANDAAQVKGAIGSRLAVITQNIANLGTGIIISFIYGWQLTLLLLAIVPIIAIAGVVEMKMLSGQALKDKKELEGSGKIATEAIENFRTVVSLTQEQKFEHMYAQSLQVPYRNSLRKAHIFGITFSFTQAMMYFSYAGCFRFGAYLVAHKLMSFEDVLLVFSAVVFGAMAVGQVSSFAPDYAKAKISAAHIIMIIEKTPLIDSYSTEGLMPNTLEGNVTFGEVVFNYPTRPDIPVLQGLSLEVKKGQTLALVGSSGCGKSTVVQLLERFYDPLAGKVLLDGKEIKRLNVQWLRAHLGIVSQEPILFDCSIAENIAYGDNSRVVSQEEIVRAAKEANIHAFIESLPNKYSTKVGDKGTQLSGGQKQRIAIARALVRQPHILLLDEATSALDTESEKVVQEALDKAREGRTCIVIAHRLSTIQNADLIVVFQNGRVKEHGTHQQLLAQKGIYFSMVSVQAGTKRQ

Row | Compound | fu (fraction unbound), PPB ([1]; 1 μM, 4 h at 37 °C, equilibrium dialysis) | A-B permeability (Papp) (BCRP (MDCK-BCRP)) | B-A permeability (Papp) (BCRP (MDCK-BCRP)) | AUC at 3 mg/kg as share of AUC at 10 mg/kg [2] | AUC ([2]; 3 mg/kg) | AUC ([2]; 10 mg/kg) | Cmax ([2]; 10 mg/kg) | Tmax ([2]; 10 mg/kg) | A-B permeability (Papp) (human Pgp (MDCK-MDR1); [4]) | B-A permeability (Papp) (human Pgp (MDCK-MDR1); [4]) | Pgp substrate assessment (human Pgp (MDCK-MDR1); MDCK-Pgp) | Tmax in CSF [3] | average concentration in CSF [3] | fraction unbound at 4 h, 1 μM (in vitro) | Tmax (Pharmacokinetics; CSF, 3 mg/kg) | Tmax (Pharmacokinetics; CSF, 10 mg/kg) | Tmax (Pharmacokinetics; plasma, 3 mg/kg) | fraction unbound at 4 h, 1 μM ([1]; pH 7.4)
1 | clozapine-N-oxide [CNO] | 0.43 | 0.07 ×10⁻⁶ cm/s | 0.21 ×10⁻⁶ cm/s | approximately 65% | 519 ng·h/mL | 795 ng·h/mL | 7 µM | 90 min ^b | 0.05 ×10⁻⁶ cm/s | 1 ×10⁻⁶ cm/s | substrate of Pgp | 1 h | 9 ng/mL |  |  |  |  | 
2 | Clc1ccc2c(c1)N=C(N1CCNCC1)c1ccccc1N2 [N-desmethylclozapine] |  |  |  |  |  |  |  |  |  |  |  |  |  | 0.11 | 24 h | 24 h | 24 h | 
3 | CN1CCN(C2=Nc3cc(Cl)ccc3Nc3ccccc32)CC1 [clozapine] |  |  |  |  |  |  |  |  |  |  |  |  |  |  | 2.67 h | 2.67 h | 2.67 h | 0.05
